Counter-ions that a name gives are not always drawn.
target: wild type human HSD17B13 (Homo sapiens (Human), UniProt Q7Z5P4); assay: HEK_Beta-Est LCMS_IC50_Tekcel, whole-cell HEK-HSD17B13 inhibition assay, estrone production by LCMS; type: cell-based; details: geometric mean, HEK cells stably expressing wild type human HSD17B13, 25 μM FAC beta-estradiol, read-out: HEK_Beta-Est LCMS_IC50—Tekcel GMean IC50
Protocol: HEK_Beta-Est LCMS_IC50_Tekcel
Inhibition potency of test compounds was determined using a whole-cell HEK-HSD17B13 inhibition assay, utilizing a LCMS readout.
HSD17B13 uses the oxidized form of nicotinamide adenine dinucleotide (NAD+) as a cofactor during metabolism of beta-estradiol (substrate), converting NAD+ to the reduced form (NADH) and beta-estradiol to its product (estrone). Estrone production is quantified by LCMS, and used as a measure of HSD17B13 enzyme activity.
([…]: 5% CO2). […] Growth media was then removed from the cell plates and replaced with 10 μL of 2×FAC test compound, and incubated for 1 hour (with lid) at 37° C. […] The reaction was incubated for 2 hours (with lid) at 37° C. […] Amount of product (estrone) was then quantified by LCMS. Data expressed as product area ratio (PAR) were then normalized to control wells using Activity Base (IDBS). Zero percent effect (ZPE) was defined as PAR generated from uninhibited HSD17B13 (vehicle control).

wild type human HSD17B13, sequence (Q7Z5P4 20-300): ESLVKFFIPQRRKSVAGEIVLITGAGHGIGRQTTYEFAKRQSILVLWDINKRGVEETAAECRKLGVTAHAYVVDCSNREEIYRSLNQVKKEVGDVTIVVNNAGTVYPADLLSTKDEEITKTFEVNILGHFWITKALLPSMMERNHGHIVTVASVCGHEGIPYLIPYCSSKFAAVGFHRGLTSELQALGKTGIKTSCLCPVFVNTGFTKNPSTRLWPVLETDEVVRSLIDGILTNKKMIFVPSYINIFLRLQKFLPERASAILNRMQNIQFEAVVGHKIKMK

`O=C(NC[C@]12CC[C@@](c3nc(-c4ncc(C(F)(F)F)cn4)no3)(CC1)CC2)c1cc(F)c(O)c(F)c1F` [Example 3, 2,3,5-Trifluoro-4-hydroxy-N-[(4-{3-[5-(trifluoromethyl)pyrimidin-2-yl]-1,2,4-oxadiazol-5-yl}bicyclo[2.2.2]octan-1-yl)methyl]benzamide] and `O=C(NC[C@]12CC[C@@](n3cc4ccc(-c5ncccn5)cc4n3)(CC1)CC2)c1cc(F)c(O)c(F)c1F` [Example 7, 2,3,5-Trifluoro-4-hydroxy-N-({4-[6-(pyrimidin-2-yl)-2H-indazol-2-yl]bicyclo[2.2.2]octan-1-yl}methyl)benzamide] are within 1.5-fold of each other in IC50: 130 nM for the first, 180 nM for the second.

First: O=C(NC[C@H]1CC[C@H](n2cc3ccc(-c4cnn(CC(F)F)c4)cc3n2)CC1)c1cc(F)c(O)c(F)c1 [Example 10, N-{[(1r,4r)-4-{6-[1-(2,2-Difluoroethyl)-1H-pyrazol-4-yl]-2H-indazol-2-yl}cyclohexyl]methyl}-3,5-difluoro-4-hydroxybenzamide, trifluoroacetate salt]
Second: O=C(NC[C@H]1CC[C@H](n2cc3ccc(-c4ncc(C(F)F)s4)cc3n2)CC1)c1cc(F)c(O)c(F)c1 [Example 91, N-{[(1r,4r)-4-{6-[5-(difluoromethyl)-1,3-thiazol-2-yl]-2H-indazol-2-yl}cyclohexyl]methyl}-3,5-difluoro-4-hydroxybenzamide]
The IC50 of the first is 2.3-fold lower: 120 nM for the first, 280 nM for the second. The first is the more potent here.

`O=C(NC[C@H]1CC[C@H](n2cc3ccc(-n4cc(C(F)(F)F)cn4)cc3n2)CC1)c1cc(F)c(O)c(F)c1F` [Example 11, 2,3,5-Trifluoro-4-hydroxy-N-{[(1r,4r)-4-{6-[4-(trifluoromethyl)-1H-pyrazol-1-yl]-2H-indazol-2-yl}cyclohexyl]methyl}benzamide, trifluoroacetate salt] and `O=C(NC[C@H]1CC[C@H](n2cc3cc(Cl)ccc3n2)CC1)c1cc(F)c(O)c(F)c1F` [Example 26, N-{[(1r,4r)-4-(5-chloro-2H-indazol-2-yl)cyclohexyl]methyl}-2,3,5-trifluoro-4-hydroxybenzamide] are within 1.5-fold of each other in IC50: 240 nM for the first, 190 nM for the second.

`Cn1cc(-c2ccc3nc([C@H]4CC[C@H](CNC(=O)c5cc(F)c(O)c(F)c5F)CC4)cn3c2)cn1` [Example 29, 2,3,5-trifluoro-4-hydroxy-N-({(1r,4r)-4-[6-(1-methyl-1H-pyrazol-4-yl)imidazo[1,2-a]pyridin-2-yl]cyclohexyl}methyl)benzamide] and `Cn1cc(-c2ccn3cc([C@H]4CC[C@H](CNC(=O)c5cc(F)c(O)c(F)c5F)CC4)nc3c2)cn1` [Example 30, 2,3,5-trifluoro-4-hydroxy-N-({(1r,4r)-4-[7-(1-methyl-1H-pyrazol-4-yl)imidazo[1,2-a]pyridin-2-yl]cyclohexyl}methyl) benzamide] are within 1.5-fold of each other in IC50: 350 nM for the first, 360 nM for the second.

First: O=C(NC[C@H]1CC[C@H](n2cc3cc(OCc4cccc(C(F)(F)F)n4)ncc3n2)CC1)c1cc(F)c(O)c(F)c1 [Example 33, 3,5-difluoro-4-hydroxy-N-{[(1r,4r)-4-(5-{[6-(trifluoromethyl)pyridin-2-yl]methoxy}-2H-pyrazolo[3,4-c]pyridin-2-yl)cyclohexyl]methyl}benzamide]
Second: O=C(NC[C@H]1CC[C@H](n2cc3ccc(-c4cnc(C(F)(F)F)cn4)cc3n2)CC1)c1cc(F)c(O)c(F)c1 [Example 78, 3,5-difluoro-4-hydroxy-N-{[(1r,4r)-4-{6-[5-(trifluoromethyl)pyrazin-2-yl]-2H-indazol-2-yl}cyclohexyl]methyl} benzamide]
The IC50 of the first is 2-fold higher: 380 nM for the first, 190 nM for the second.

Compared with `Cn1cc(-c2ccc3cn([C@H]4CC[C@H](CNC(=O)c5cc(F)c(O)c(F)c5)CC4)nc3c2)nn1` [Example 79, 3,5-difluoro-4-hydroxy-N-({(1r,4r)-4-[6-(1-methyl-1H-1,2,3-triazol-4-yl)-2H-indazol-2-yl]cyclohexyl}methyl) benzamide], `Cn1ncc(-c2ccc3cn([C@H]4CC[C@H](CNC(=O)c5cc(F)c(O)c(F)c5)CC4)nc3c2)n1` [Example 92, 3,5-difluoro-4-hydroxy-N-({(1r,4r)-4-[6-(2-methyl-2H-1,2,3-triazol-4-yl)-2H-indazol-2-yl]cyclohexyl}methyl)benzamide] is 2.8-fold lower in IC50: 370 nM for the first, 130 nM for the second. The second is the more potent here.

First: O=C(NC[C@H]1CC[C@H](n2cc3ccc(-c4cnn5ccccc45)cc3n2)CC1)c1cc(F)c(O)c(F)c1 [Example 80, 3,5-difluoro-4-hydroxy-N-({(1r,4r)-4-[6-(pyrazolo[1,5-a]pyridin-3-yl)-2H-indazol-2-yl]cyclohexyl}methyl) benzamide, trifuoroacetate salt]
Second: O=C(NC[C@H]1CC[C@H](n2cc3ccc(-c4ccn5nccc5c4)cc3n2)CC1)c1cc(F)c(O)c(F)c1 [Example 89, 3,5-difluoro-4-hydroxy-N-({(1r,4r)-4-[6-(pyrazolo[1,5-a]pyridin-5-yl)-2H-indazol-2-yl]cyclohexyl}methyl) benzamide, trifluoroacetate salt]
The IC50 of the first is 1.5-fold higher: 200 nM for the first, 130 nM for the second.

`Cc1cc(-c2ccc3cn([C@H]4CC[C@H](CNC(=O)c5cc(F)c(O)c(F)c5)CC4)nc3c2)ccn1` [Example 81, 3,5-difluoro-4-hydroxy-N-({(1r,4r)-4-[6-(2-methylpyridin-4-yl)-2H-indazol-2-yl]cyclohexyl}methyl) benzamide, trifluoroacetate salt] and `Cc1cc(-c2ccc3cn([C@H]4CC[C@H](CNC(=O)c5cc(F)c(O)c(F)c5)CC4)nc3c2)ncn1` [Example 87, 3,5-difluoro-4-hydroxy-N-({(1r,4r)-4-[6-(6-methylpyrimidin-4-yl)-2H-indazol-2-yl]cyclohexyl}methyl) benzamide] are within 1.5-fold of each other in IC50: 120 nM for the first, 130 nM for the second.

`O=C(NC[C@H]1CC[C@H](n2cc3ccc(-c4ncns4)cc3n2)CC1)c1cc(F)c(O)c(F)c1` [Example 82, 3,5-difluoro-4-hydroxy-N-({(1r,4r)-4-[6-(1,2,4-thiadiazol-5-yl)-2H-indazol-2-yl]cyclohexyl}methyl) benzamide] and `O=C(NC[C@H]1CC[C@H](n2cc3ccc(-c4ccns4)cc3n2)CC1)c1cc(F)c(O)c(F)c1` [Example 83, 3,5-difluoro-4-hydroxy-N-({(1r,4r)-4-[6-(1,2-thiazol-5-yl)-2H-indazol-2-yl]cyclohexyl}methyl) benzamide] are within 1.5-fold of each other in IC50: 120 nM for the first, 94 nM for the second.

Compared with `O=C(NC[C@H]1CC[C@H](n2cc3ccc(-c4csc5cncn45)cc3n2)CC1)c1cc(F)c(O)c(F)c1` [Example 84, 3,5-difluoro-4-hydroxy-N-({(1r,4r)-4-[6-(imidazo[5,1-b][1,3]thiazol-3-yl)-2H-indazol-2-yl]cyclohexyl}methyl) benzamide, trifluoroacetate salt], `O=C(NC[C@H]1CC[C@H](n2cc3ccc(-c4cncs4)cc3n2)CC1)c1cc(F)c(O)c(F)c1` [Example 96, 3,5-difluoro-4-hydroxy-N-({(1r,4r)-[6-(1,3-thiazol-5-yl)-2H-indazol-2-yl]cyclohexyl}methyl)benzamide] is 4.6-fold lower in IC50: 390 nM for the first, 85 nM for the second.

`O=C(NC[C@H]1CC[C@H](n2cc3ccc(-c4csc(C5CC5)n4)cc3n2)CC1)c1cc(F)c(O)c(F)c1` [Example 85, N-({(1r,4r)-4-[6-(2-cyclopropyl-1,3-thiazol-4-yl)-2H-indazol-2-yl]cyclohexyl}methyl)-3,5-difluoro-4-hydroxybenzamide] and `Cc1nc(-c2ccc3cn([C@H]4CC[C@H](CNC(=O)c5cc(F)c(O)c(F)c5)CC4)nc3c2)cs1` [Example 94, 3,5-difluoro-4-hydroxy-N-({(1r,4r)-4-[6-(2-methyl-1,3-thiazol-4-yl)-2H-indazol-2-yl]cyclohexyl}methyl) benzamide] are within 1.5-fold of each other in IC50: 180 nM for the first, 140 nM for the second.

`COc1nc(-c2ccc3cn([C@H]4CC[C@H](CNC(=O)c5cc(F)c(O)c(F)c5)CC4)nc3c2)nn1C` [Example 86, 3,5-difluoro-4-hydroxy-N-({(1r,4r)-4-[6-(5-methoxy-1-methyl-1H-1,2,4-triazol-3-yl)-2H-indazol-2-yl]cyclohexyl}methyl) benzamide] and `COc1ccnc(-c2ccc3cn([C@H]4CC[C@H](CNC(=O)c5cc(F)c(O)c(F)c5)CC4)nc3c2)n1` [Example 95, 3,5-difluoro-4-hydroxy-N-({(1r,4r)-4-[6-(4-methoxypyrimidin-2-yl)-2H-indazol-2-yl]cyclohexyl}methyl)benzamide] are within 1.5-fold of each other in IC50: 270 nM for the first, 240 nM for the second.

`Cc1ncc(-c2ccc3cn([C@H]4CC[C@H](CNC(=O)c5cc(F)c(O)c(F)c5)CC4)nc3c2)s1` [Example 88, 3,5-difluoro-4-hydroxy-N-({(1r,4r)-4-[6-(2-methyl-1,3-thiazol-5-yl)-2H-indazol-2-yl]cyclohexyl}methyl)benzamide] and `Cc1cncc(-c2ccc3cn([C@H]4CC[C@H](CNC(=O)c5cc(F)c(O)c(F)c5)CC4)nc3c2)c1` [Example 90, 3,5-difluoro-4-hydroxy-N-({(1r,4r)-4-[6-(5-methylpyridin-3-yl)-2H-indazol-2-yl]cyclohexyl}methyl) benzamide, trifluoroacetate salt] are within 1.5-fold of each other in IC50: 170 nM for the first, 200 nM for the second.

First: O=C(NC[C@H]1CC[C@H](n2cc3ccc(-c4cc(C5CC5)ncn4)cc3n2)CC1)c1cc(F)c(O)c(F)c1 [Example 93, N-({(1r,4r)-4-[6-(6-cyclopropylpyrimidin-4-yl)-2H-indazol-2-yl]cyclohexyl}methyl)-3,5-difluoro-4-hydroxybenzamide]
Second: O=C(NC[C@H]1CC[C@H](n2cc3ccc(-c4ncc5cc[nH]c5n4)cc3n2)CC1)c1cc(F)c(O)c(F)c1 [Example 97, 3,5-difluoro-4-hydroxy-N-({(1r,4r)-4-[6-(7H-pyrrolo[2,3-d]pyrimidin-2-yl)-2H-indazol-2-yl]cyclohexyl}methyl) benzamide]
The IC50 of the first is 1.7-fold lower: 180 nM for the first, 300 nM for the second.
